50 compounds from patent publication US20200385396A1, “Compond for treatment or prevention of obesity or diseases related to obesity, and application thereof” (SHANGHAI INSTITUTES FOR BIOLOGICAL SCIENCES, CHINESE …, priority 2017, published 2020) can be followed below.

The subject of one data set is mice. The data set is described as follows: Inhibition of food intake in mice by HLY72/HLY78 derivatives. Type of data set: in vivo, mouse. To be noted: for inhibition of food intake in mice / activity compared with HLY72: intraperitoneal, 75 umol/kg; for activity compared with HLY72 / activity relative to Hly72 / effective concentration (EC50) relative to HLY72: food intake; for activity relative to Hly72 / effective concentration (EC50) relative to HLY72: compounds 7.5 umol/kg vs Hly72 75 umol/kg; for effective concentration (EC50) relative to HLY72: 5-6 mice per group. The procedure:
All compounds are injected intraperitoneally with a concentration of 75 umol/kg (20 mg/kg of Hly72 equals 75 umol/kg). One-way ANOVA statistical analysis, *: P<0.05, **: P⋅<0.01, ***: P<0.001.
All compounds are injected intraperitoneally at a concentration of 75 umol/kg (20 mg/kg of Hly72 equals 75 umol/kg). One-way ANOVA statistics Analysis, *: P<0.05, **: P⋅<0.01, ***: P<0.001.
Intraperitoneal injection of Hly72 at a concentration of 75 umol/kg (20 mg/kg of Hly72 equals 75 umol/kg), Hgsy-98, Hybj-12a, Hybj-13a are all 7.5 umol/kg. One-way ANOVA statistical analysis, *: P<0.05, **: P⋅<0.01, ***: P<0.001.
The next question we are very concerned about is whether HLY78 has similar functions to NUCB2 protein in mice. Up to now, the most classic function reported for NUCB2 protein is to reduce the food intake of mice at night. Therefore, the experiment was designed: 20 mg/kg of HLY78 was injected intraperitoneally within two hours before turning off the lights at night, and then the food intake of the mice was measured at different time points (0-3 h, 0-6 h, 0-12 h, 0-24 h). […] During the three days of the adaptive injection period before HLY78 injection, both groups of mice were injected with DMSO. On the day of injection of HLY78 and the two days before the injection of DMSO, the body weight of the two groups of mice is also the same (FIG. 2b). […]
Experimental methods were the same as in Examples 2 and 4.
Three compounds of Hgsy-98, Hybj-12a and Hybj-13a were selected for re-experiment (5-6 mice per group).

The nature of another data set: Solubility (Table C). Type of data set: physicochemical. The note with it: solvent named in Table C.

`CCc1cccc2c1N(C)Cc1cc(OC)ccc1-2` [Hcj12]: in the data set with mice, the “inhibition of food intake in mice” value is recorded as “obvious effects”. Besides, in “Solubility (Table C)”, the Solubility result is recorded as “DMSO”.

Consider `COc1ccc2c(c1)CN(C)c1c(C)cccc1-2` [Hcj15], for which, in the data set “Solubility (Table C)”, the Solubility entry was “DMSO”.

With `Cc1cccc2c1N(C)Cc1cc(O)ccc1-2` [Hcj16], in the data set on mice, the “inhibition of food intake in mice” value was “obvious effects”. Also, the Solubility result in “Solubility (Table C)” was “DMSO”.

Turning to `C#CCOc1ccc2c(c1)CN(C)c1c(C)cccc1-2` [Hcj16d-a], the Solubility result in the data set “Solubility (Table C)” was “DMSO”.

Take `CCN1Cc2cc(O)ccc2-c2cccc(C)c21` [Hcj36]: the Solubility entry in “Solubility (Table C)” is “DMSO”.

In the case of `CCN1Cc2cc(O)c(OC)cc2-c2cccc(C)c21` [Hcj44-d], the Solubility result in “Solubility (Table C)” is “DMSO”.

In the case of `C#CCOc1cc2c(cc1OCC#C)-c1cccc(C)c1N(CC)C2` [Hcj46-d], in the data set “Solubility (Table C)”, the Solubility entry is reported as “DMSO”.

As for `COc1cc2c(cc1OC)-c1cccc(C)c1NC2` [Hcj92-a], the Solubility entry in “Solubility (Table C)” is listed as “DMSO”.

Consider `Cc1cccc2c1N(C)Cc1cc(OCc3cc4cc(Cl)ccc4s3)ccc1-2` [Hcj194-d], for which the “inhibition of food intake in mice” value with mice is “obvious effects”. Further, in the data set “Solubility (Table C)”, the Solubility entry is recorded as “DMSO”.

With `Cc1cccc2c1N(C)Cc1cc(OCc3cc(C)n(C)n3)ccc1-2` [Hcj221d], in “Solubility (Table C)”, the Solubility entry is “DMSO”.

As for `C=CC(O)c1cccc2c3ccc(OC)cc3c(=O)n(CC)c12` (centres unmarked) [Hgsy-3], in “Solubility (Table C)”, the Solubility entry was “DMSO”.

For the compound `C=CC(O)c1cccc2c3cc(OC)c(OC)cc3c(=O)n(CC)c12` (centres unmarked) [Hgsy-25], the Solubility result in the data set “Solubility (Table C)” is given as “DMSO”.

Consider `CCn1c(=O)c2cc(OC)ccc2c2cccc(CO)c21` [Hgsy-31], for which, in the data set “Solubility (Table C)”, the Solubility entry is on record as “DMSO”.

On to `CCn1c(=O)c2cc(OC)ccc2c2cccc(OC)c21` [Hgsy-32], for which, in the data set “Solubility (Table C)”, the Solubility entry is “DMSO”.

Regarding `COc1cc2c(=O)n(C)c3c(OC)cccc3c2cc1OC` [Hgsy-35], in the data set with mice, the “inhibition of food intake in mice” value was “obvious effects”. In addition, in “Solubility (Table C)”, the Solubility entry was “DMSO”.

With `CCn1c(=O)c2cc(OC)c(OC)cc2c2cccc(CO)c21` [Hgsy-36], the “inhibition of food intake in mice” value in the data set on mice is on record as “obvious effects”. Also, in “Solubility (Table C)”, the Solubility result is on record as “DMSO”.

As to `CCCCn1c(=O)c2cc(OC)c(OC)cc2c2cccc(CO)c21` [Hgsy-43], in “Solubility (Table C)”, the Solubility result is listed as “DMSO”.

As to `CCCCN1Cc2cc(OC)c(OC)cc2-c2cccc(CO)c21` [Hgsy-44], the Solubility entry in the data set “Solubility (Table C)” is recorded as “DMSO”.

On to `CCN1Cc2cc(OC)c(OC)cc2-c2cccc(COC(C)=O)c21` [Hgsy-47], for which the Solubility entry in the data set “Solubility (Table C)” is on record as “DMSO”.

For the compound `CCN1Cc2cc(OC)c(OC)cc2-c2cccc(CO)c21` [Hgsy-48], the Solubility result in the data set “Solubility (Table C)” is recorded as “DMSO”.

Regarding `CCCCn1c(=O)c2cc(OC)c(OC)cc2c2cccc(C=O)c21` [Hgsy-50], in the data set with mice, the “activity compared with HLY72” value was “significantly better” and the “inhibition of food intake in mice” value is reported as “obvious effects”. In addition, in the data set “Solubility (Table C)”, the Solubility result is reported as “DMSO”.

Consider `CCn1c(=O)c2cc(OC)c(OC)cc2c2cccc(C=O)c21` [Hgsy-51], for which the Solubility result in “Solubility (Table C)” is “DMSO”.

Take `CCCCn1c(=O)c2cc(OC)c(OC)cc2c2cccc(C(C)O)c21` (centres unmarked) [Hgsy-53]: the Solubility entry in “Solubility (Table C)” is “DMSO”.

For the compound `CCCCN1Cc2cc(OC)c(OC)cc2-c2cccc(C(C)O)c21` (centres unmarked) [Hgsy-55], in “Solubility (Table C)”, the Solubility result is “DMSO”.

For `COc1cc2c(=O)n(C)c3c(C(C)O)cccc3c2cc1OC` (centres unmarked) [Hgsy-56], the Solubility entry in the data set “Solubility (Table C)” is on record as “DMSO”.

Take `COc1cc2c(=O)n(C)c3c(C(C)=O)cccc3c2cc1OC` [Hgsy-57]: the Solubility entry in the data set “Solubility (Table C)” is listed as “DMSO”.

In the case of `C=Cc1cccc2c3cc(OC)c(OC)cc3c(=O)n(C)c12` [Hgsy-58], in the data set “Solubility (Table C)”, the Solubility entry was “DMSO”.

`COc1cc2c(cc1OC)-c1cccc(C(C)O)c1N(C)C2` (centres unmarked) [Hgsy-59]: in “Solubility (Table C)”, the Solubility result is “DMSO”.

As to `COc1cc2c(cc1OC)-c1cccc(OC)c1N(C)C2` [Hgsy-60], in the data set “Solubility (Table C)”, the Solubility result is reported as “DMSO”.

Regarding `CCn1c(=O)c2cc(OC)ccc2c2cccc(C(C)O)c21` (centres unmarked) [Hgsy-62], the Solubility entry in “Solubility (Table C)” was “DMSO”.

For the compound `CCCn1c(=O)c2cc(OC)ccc2c2cccc(C(C)O)c21` (centres unmarked) [Hgsy-64], the Solubility result in the data set “Solubility (Table C)” is recorded as “DMSO”.

With `CCCN1Cc2cc(OC)ccc2-c2cccc(C(C)O)c21` (centres unmarked) [Hgsy-66], the Solubility entry in the data set “Solubility (Table C)” is reported as “DMSO”.

Turning to `C=Cc1cccc2c3ccc(OC)cc3c(=O)n(CC)c12` [Hgsy-67], the Solubility result in the data set “Solubility (Table C)” is on record as “DMSO”.

On to `C=Cc1cccc2c3ccc(OC)cc3c(=O)n(CCC)c12` [Hgsy-68], for which the Solubility entry in the data set “Solubility (Table C)” is on record as “DMSO”.

In the case of `CCn1c(=O)c2cc(OC)c(OC)cc2c2cccc(C3OCCO3)c21` [Hgsy-69], the Solubility result in “Solubility (Table C)” is reported as “DMSO”.

`C/C=C/c1cccc2c3cc(OC)c(OC)cc3c(=O)n(C)c12` [Hgsy-75]: in “Solubility (Table C)”, the Solubility result is “DMSO”.

`C/C=C/c1cccc2c1N(C)Cc1cc(OC)c(OC)cc1-2` [Hgsy-78]: in the data set with mice, the “inhibition of food intake in mice” value is recorded as “obvious effects”. Also, the Solubility result in “Solubility (Table C)” is reported as “DMSO”.

In the case of `C/C=C/c1cccc2c3cc(OC)c(OC)cc3c(=O)n(CCCC)c12` [Hgsy-80], in the data set with mice, the “activity compared with HLY72” value was “significantly better” and the “inhibition of food intake in mice” value was “obvious effects”. For the same compound, the Solubility entry in the data set “Solubility (Table C)” is “DMSO”.

With `C/C=C/c1cccc2c1N(CCCC)Cc1cc(OC)c(OC)cc1-2` [Hgsy-86], in the data set with mice, the “inhibition of food intake in mice” value is listed as “obvious effects”. In addition, the Solubility entry in the data set “Solubility (Table C)” is reported as “DMSO”.

With `C/C=C/c1cccc2c3ccc(OC)cc3c(=O)n(C)c12` [Hgsy-89], the Solubility result in the data set “Solubility (Table C)” is “DMSO”.

For `C/C=C/c1cccc2c1N(C)Cc1cc(OC)ccc1-2` [Hgsy-92-1], the “inhibition of food intake in mice” value in the data set on mice was “obvious effects”. Also, in the data set “Solubility (Table C)”, the Solubility result is “DMSO”.

With `C/C=C/c1cccc2c3ccc(OC)cc3c(=O)n(CCCC)c12` [Hgsy-97], the Solubility result in the data set “Solubility (Table C)” is recorded as “DMSO”.

In the case of `C/C=C/c1cccc2c1N(CCCC)Cc1cc(OC)ccc1-2` [Hgsy-98], in the data set with mice, the “activity compared with HLY72” value was “significantly better”, the “activity relative to Hly72” value is “about 10 times” and the “effective concentration (EC50) relative to HLY72” value is given as “one tenth”. For the same compound, the Solubility result in the data set “Solubility (Table C)” is “DMSO”.

On to `C=Cc1cccc2c1N(CCCCCCCCCCCCCCCCCC)Cc1cc3c(cc1-2)OCO3` [Hyb-17a], for which, in the data set on mice, the “activity compared with HLY72” value is on record as “significantly better” and the “inhibition of food intake in mice” value is reported as “obvious effects”. In “Solubility (Table C)”, the Solubility result is recorded as “DMSO”.

`C=Cc1cccc2c1N(C)Cc1cc(OC)c(OC)cc1-2` [Hybj-1a]: the “inhibition of food intake in mice” value in the data set with mice was “obvious effects”. Also, the Solubility result in “Solubility (Table C)” is given as “DMSO”.

In the case of `C=Cc1cccc2c1N(C)Cc1cc(OCC)c(OCC)cc1-2` [Hybj-2a], the “inhibition of food intake in mice” value with mice is recorded as “obvious effects”.

As for `C=Cc1cccc2c1N(C)Cc1cc(OCCCC)c(OCCCC)cc1-2` [Hybj-3a], the “inhibition of food intake in mice” value in the data set with mice is listed as “obvious effects”.

With `C=Cc1cccc2c1N(CCCCCC)Cc1cc3c(cc1-2)OCO3` [Hybj-9a], in the data set on mice, the “inhibition of food intake in mice” value is recorded as “obvious effects”. Moreover, in “Solubility (Table C)”, the Solubility result is “DMSO”.

Consider `C=Cc1cccc2c1N(CCCCCCCCCCCC)Cc1cc3c(cc1-2)OCO3` [Hybj-13a], for which, in the data set on mice, the “activity compared with HLY72” value is on record as “significantly better”, the “activity relative to Hly72” value is given as “about 10 times”, the “effective concentration (EC50) relative to HLY72” value is “one tenth” and the “inhibition of food intake in mice” value is listed as “obvious effects”. For the same compound, in the data set “Solubility (Table C)”, the Solubility result is recorded as “DMSO”.

Regarding `C=Cc1cccc2c1N(CCCCCCCCCC)Cc1cc3c(cc1-2)OCO3` [Hyj-12a], in the data set with mice, the “activity compared with HLY72” value was “significantly better”, the “activity relative to Hly72” value is 30-40 times, the “effective concentration (EC50) relative to HLY72” value is on record as “one tenth” and the “inhibition of food intake in mice” value is recorded as “obvious effects”. Moreover, the Solubility result in “Solubility (Table C)” is recorded as “DMSO”.
